{
  "source": "patent US5929079A",
  "about": "“Trans cyclopentanyl azaadenyl analogs useful as immunosuppressants” (Hoechst Marion Roussel, Inc., priority 1997, dated 1999)",
  "key": {"[1]": {"system": "macrophage antigen presentation to Lewis (LEW/N) rat T-cell hybridoma (Interleukin-2 production)", "test": "Regulation of antigen presentation to rat T-cell hybridoma (Interleukin-2 production)", "type": "cell-based", "description": "Using the method of Ku (Cellular Immunology 130,(1990)), and a Lewis (LEW/N) rat T-cell hybridoma reactive with the protein methylated bovine serum albumin (mBSA), the ability of a compound of formula (1) to regulate M.phi. antigen presentation in vitro may be measured. Peritoneal macrophages obtained from LEW/N rats are plated into tissue culture and treated with 100 ug of mBSA and drug. A control is prepared similarly. After a period of 18 hours the cells are washed and incubated with the T-cell hybridoma for an additional 12 hours. Supernatants from these cultures are obtained and measured for content of Interleukin-2, a T-cell derived lymphokine which is roduced by activated T-cells. […] Rat macrophage antigen presentation and the subsequent production of Interleukin-2 are inhibited when rug is administered over a concentration range from 0.1 to 100 uM as illustrated in the following table."}, "[2]": {"system": "endotoxin lethality in CF1 mice", "test": "Mouse endotoxin lethality model (D-galactosamine/LPS septic shock)", "type": "in vivo", "conditions": "100 mg/kg i.p., pretreated at t=-1 hr; death observed over 8-72 hours", "description": "Using the method of Silverstein, (J. Exp. Med. 173, 357 (1991)) a mouse endotoxin lethality model may be used to determine if a compound of formula (1) has the ability to inhibit endotoxin-induced septic shock which is dependent on the production of Tumor Necrosis Factor-a (TNF-α). CF1 mice pretreated at time (t)=-1 hr with drug are challenged with 18 mg of D-glactoseamine and 50 ng of LPS, then observed for death over an 8-72 hour period."}},
  "note": "Counter-ions that a name gives are not always drawn.",
  "data": [
    {"smiles": "Nc1ncnc2c1ncn2[C@@H]1CC[C@@H](O)C1", "note": "[(1R,3R)-TRANS-1(9-ADENYL)CYCLOPENTAN-3-OL HYDROCHLORIDE]", "values": [
      {"measurement": "Rat macrophage antigen presentation and subsequent production of Interleukin-2", "setting": "[1]; 0.1 to 100 uM", "value": "inhibited"},
      {"measurement": "T-cell activation", "setting": "[1]; in vitro", "value": "inhibits T-cell ctivation"},
      {"measurement": "protection against endotoxin lethality", "setting": "[2]", "value": "protects against endotoxin lethality"}
    ]}
  ]
}
